Measurements: US8148391B2 (Cephalon, Inc., priority 2006, dated 2012)
Where two headings read alike, the source gives them in different places.

Key:
[1] = biological target: T1, c-Met (cytoplasmic domain) (Homo sapiens, UniProt P08581); test: c-Met Kinase Assay (same methods as for ALK, with modifications); format: biochemical
T1 construct: 10 ng/mL c-Met (cytoplasmic domain, Invitrogen Corporation #PV3143); purchased Invitrogen Corporation PV3143
Method in brief: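 Plates were coated with phospholipase C-γ substrate (10 μg/mL) in TBS, and the reaction was started with 10 ng/mL c-Met cytoplasmic domain and run 15 min at 37 °C. Phosphoproduct was detected with Eu-N1-labelled PT66 antibody. IC50 came from a variable-slope sigmoidal fit of percent inhibition vs log concentration.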

[2] = biological target: T2, baculovirus-expressed ALK (Homo sapiens, UniProt Q9UM73); test: ALK Kinase Assay (ELISA-type, time-resolved fluorescence); format: biochemical
T2 construct: host or cells: baculovirus expression system
Method in brief: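 Plates coated with phospholipase C-γ substrate (10 μg/mL in TBS); reaction started with 30 ng/ml ALK and run 15 min at 37° C. Phosphorylated substrate detected with Eu-N1-labeled PT66 antibody. IC50 from sigmoidal variable-slope fit of percent inhibition vs log concentration.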

[3] = c-Met kinase inhibition, 1 μM ATP, read-out: cMet Activity
[4] = ALK kinase inhibition, 1 μM ATP, read-out: ALK Activity
[5] = c-Met kinase inhibition, 1 μM ATP (Km level), read-out: cMet Activity
[6] = ALK kinase inhibition, 1 μM ATP (Km level), read-out: ALK Activity
[7] = 1 μM ATP (Km level), read-out: cMet Activity (c-Met Kinase Inhibition, IC50)
[8] = 1 μM ATP (Km level), read-out: ALK Activity (ALK Kinase Inhibition, IC50)
[9] = 1 μM ATP (Km level), 10 ng/mL c-Met, read-out: cMet Activity (c-Met kinase inhibition, IC50 class)
[10] = 1 μM ATP (Km level), 30 ng/ml ALK, 37° C., 15 minutes, read-out: ALK Activity (ALK kinase inhibition, IC50 class)

T1 sequence (P08581 956-1390 limits assumed): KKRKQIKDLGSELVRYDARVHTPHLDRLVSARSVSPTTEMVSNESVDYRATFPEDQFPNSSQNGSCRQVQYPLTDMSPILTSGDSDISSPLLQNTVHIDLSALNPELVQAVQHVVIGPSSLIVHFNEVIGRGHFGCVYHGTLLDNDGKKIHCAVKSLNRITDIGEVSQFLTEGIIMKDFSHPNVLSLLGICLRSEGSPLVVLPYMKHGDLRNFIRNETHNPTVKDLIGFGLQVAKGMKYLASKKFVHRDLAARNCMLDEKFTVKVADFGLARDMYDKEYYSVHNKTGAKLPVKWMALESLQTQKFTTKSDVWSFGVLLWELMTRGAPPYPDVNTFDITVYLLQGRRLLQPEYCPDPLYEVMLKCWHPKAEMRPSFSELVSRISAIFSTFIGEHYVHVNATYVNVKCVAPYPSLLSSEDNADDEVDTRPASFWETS
T2 sequence (Q9UM73 19-1620): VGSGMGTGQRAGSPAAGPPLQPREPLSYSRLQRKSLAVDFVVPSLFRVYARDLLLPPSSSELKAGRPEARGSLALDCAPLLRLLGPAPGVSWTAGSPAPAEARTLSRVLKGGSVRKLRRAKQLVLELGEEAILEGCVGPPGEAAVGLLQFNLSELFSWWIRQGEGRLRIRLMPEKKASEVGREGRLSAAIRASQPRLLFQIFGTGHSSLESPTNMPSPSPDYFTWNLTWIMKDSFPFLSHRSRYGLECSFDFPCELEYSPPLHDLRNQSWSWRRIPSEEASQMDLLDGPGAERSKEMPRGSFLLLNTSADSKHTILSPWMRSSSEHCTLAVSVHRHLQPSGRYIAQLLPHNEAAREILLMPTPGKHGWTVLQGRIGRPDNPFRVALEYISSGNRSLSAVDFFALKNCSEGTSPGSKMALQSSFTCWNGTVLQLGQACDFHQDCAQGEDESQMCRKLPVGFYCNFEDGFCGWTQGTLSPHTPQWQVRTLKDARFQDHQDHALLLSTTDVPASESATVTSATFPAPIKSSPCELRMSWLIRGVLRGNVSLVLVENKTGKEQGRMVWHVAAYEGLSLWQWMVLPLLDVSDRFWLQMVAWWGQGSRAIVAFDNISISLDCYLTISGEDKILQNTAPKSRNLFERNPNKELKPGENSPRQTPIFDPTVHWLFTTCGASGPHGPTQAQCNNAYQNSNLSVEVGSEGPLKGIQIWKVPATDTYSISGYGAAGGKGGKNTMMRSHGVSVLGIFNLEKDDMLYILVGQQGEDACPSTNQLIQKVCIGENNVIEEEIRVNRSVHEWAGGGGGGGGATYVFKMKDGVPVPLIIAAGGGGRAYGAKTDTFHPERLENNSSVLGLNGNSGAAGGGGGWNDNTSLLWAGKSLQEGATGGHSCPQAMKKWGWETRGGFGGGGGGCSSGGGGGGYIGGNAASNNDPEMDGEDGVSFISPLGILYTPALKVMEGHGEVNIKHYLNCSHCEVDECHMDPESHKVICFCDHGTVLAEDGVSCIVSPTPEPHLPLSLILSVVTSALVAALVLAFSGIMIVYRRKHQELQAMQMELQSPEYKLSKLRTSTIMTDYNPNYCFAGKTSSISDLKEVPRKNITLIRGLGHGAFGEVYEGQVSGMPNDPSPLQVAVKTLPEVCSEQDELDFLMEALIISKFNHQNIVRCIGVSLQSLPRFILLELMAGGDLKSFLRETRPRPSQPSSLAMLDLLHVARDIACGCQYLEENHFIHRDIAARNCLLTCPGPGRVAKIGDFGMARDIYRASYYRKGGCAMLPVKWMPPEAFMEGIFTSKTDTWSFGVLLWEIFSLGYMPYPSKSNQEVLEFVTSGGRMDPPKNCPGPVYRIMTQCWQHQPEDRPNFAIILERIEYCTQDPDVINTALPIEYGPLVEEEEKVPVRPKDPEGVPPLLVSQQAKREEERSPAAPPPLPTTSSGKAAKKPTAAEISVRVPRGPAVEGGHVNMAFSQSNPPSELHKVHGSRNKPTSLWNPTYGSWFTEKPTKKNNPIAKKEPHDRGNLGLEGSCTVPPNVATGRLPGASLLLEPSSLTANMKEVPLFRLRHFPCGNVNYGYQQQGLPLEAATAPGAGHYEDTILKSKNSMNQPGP

Question: With CCN1C(=O)CN(C(C)=O)Cc2ccc(Nc3ncc(Cl)c(Nc4c(Cl)cccc4C(=O)NC)n3)cc21 [Example 1854, 2-[2-(4-Acetyl-1-ethyl-2-oxo-2,3,4,5-tetrahydro-1H-benzo[e][1,4]diazepin-8-ylamino)-5-chloro-pyrimidin-4-ylamino]-3-chloro-N-methyl-benzamide] as the compound, how does the IC50 [1, 3] read?
Answer: < 0.1 µM

Question: What about the IC50 [2, 4] of the same compound?
Answer: 100 to 1000 nM

Question: COc1cc2c(cc1Nc1ncc(Cl)c(Nc3ccc(N4CCOCC4)cc3OC)n1)N(C)CCN(C[C@@H](O)C(F)(F)F)C2 [Example 496, (R)-3-{8-[5-Chloro-4-(2-methoxy-4-morpholin-4-yl-phenylamino)-pyrimidin-2-ylamino]-7-methoxy-1-methyl-1,2,3,5-tetrahydro-benzo[e][1,4]diazepin-4-yl}-1,1,1-trifluoro-propan-2-ol] was tested. Which IC50 [1, 5] did it give?
Answer: > 10 µM

Question: And the IC50 [2, 6]?
Answer: < 100 nM

Question: COC(CN1CCc2ccc(Nc3ncc(Cl)c(NC4C5C=CC(C5)C4C(N)=O)n3)cc2CC1)C(F)(F)F (mixture of isomers) [Example 338, (2-exo, 3-exo)-3-{5-Chloro-2-[3-((S)-3,3,3-trifluoro-2-methoxy-propyl)-2,3,4,5-tetrahydro-1H-benzo[d]azepin-7-ylamino]-pyrimidin-4-ylamino}-bicyclo[2.2.1]hept-5-ene-2-carboxylic acid amide] was tested. Which IC50 [1, 5] did it give?
Answer: 0.1 to 1 µM

Question: And the IC50 [2, 6]?
Answer: < 100 nM

Question: For COc1cc(N2CCOCC2)ccc1Nc1nc(Nc2ccc3c(c2)CCN(C[C@H](OC)C(F)(F)F)CC3)ncc1Cl [Example 337, 5-Chloro-N*4*-(2-methoxy-4-morpholin-4-yl-phenyl)-N*2*-[-((S)-3,3,3-trifluoro-2-methoxy-propyl)-2,3,4,5-tetrahydro-1H-benzo[d]azepin-7-yl]-pyrimidine-2,4-diamine], which IC50 [1, 5] is on record?
Answer: > 10 µM

Question: And the IC50 [2, 6]?
Answer: < 100 nM

Question: Which IC50 [1, 7] does the source give for COc1c(Nc2ncc(Cl)c(N[C@@H]3CCCC[C@H]3NS(C)(=O)=O)n2)ccc2c1CCCC(N1CCOCC1)C2 (stereo partly drawn) [Example 949, N-{(1R,2R)-2-[5-Chloro-2-(1-methoxy-6-morpholin-4-yl-6,7,8,9-tetrahydro-5H-benzocyclohepten-2-ylamino)-pyrimidin-4-ylamino]-cyclohexyl}-methanesulfonamide] here?
Answer: > 10 µM

Question: What about the IC50 [2, 8] of the same compound?
Answer: < 100 nM

Question: With COc1cc(N2CCOCC2)ccc1Nc1nc(Nc2ccc3c(c2)CCC(F)(F)CC3)ncc1Cl [Example 182, 5-Chloro-N*2*-(7,7-difluoro-6,7,8,9-tetrahydro-5H-benzocyclohepten-2-yl)-N*4*-(2-methoxy-4-morpholin-4-yl-phenyl)-pyrimidine-2,4-diamine] as the compound, how does the IC50 [1, 5] read?
Answer: > 10 µM

Question: And the IC50 [2, 6]?
Answer: 100 to 1000 nM

Question: COCC(COC)N1CCc2cc(Nc3ncc(Cl)c(NC4(CC(N)=O)CCCCC4)n3)c(OC)cc2CC1 [Example 848, 2-(1-{5-Chloro-2-[8-methoxy-3-(2-methoxy-1-methoxymethyl-ethyl)-2,3,4,5-tetrahydro-1H-benzo[d]azepin-7-ylamino]-pyrimidin-4-ylamino}-cyclohexyl)-acetamide] was tested. Which IC50 [1, 7] did it give?
Answer: > 10 µM

Question: What about the IC50 [2, 8] of the same compound?
Answer: 100 to 1000 nM

Question: What does the source list for COc1ccccc1Nc1nc(Nc2ccc3c(c2)CCC(NCC(F)F)CC3)ncc1Cl (stereo not shown) [Example 663, 5-Chloro-N*2*-[7-(2,2-difluoro-ethylamino)-6,7,8,9-tetrahydro-5H-benzocyclohepten-2-yl]-N*4*-(2-methoxy-phenyl)-pyrimidine-2,4-diamine]?
Answer: IC50 [1, 7]: 1 to 10 µM; IC50 [2, 8]: < 100 nM

Question: For COCCN1CCN(C)c2cc(Nc3ncc(Cl)c(NC4C5CCC(C5)C4C(N)=O)n3)c(OC)cc2C1 (stereo not drawn) [Example 491, (2-exo,3-exo)-3-{5-Chloro-2-[7-methoxy-4-(2-methoxy-ethyl)-1-methyl-2,3,4,5-tetrahydro-1H-benzo[e][1,4]diazepin-8-ylamino]-pyrimidin-4-ylamino}-bicyclo[2.2.1]heptane-2-carboxylic acid amide], which IC50 [1, 5] is on record?
Answer: > 10 µM

Question: What about the IC50 [2, 6] of the same compound?
Answer: < 100 nM

Question: Which results are given for COc1c(Nc2ncc(Cl)c(N[C@@H]3CCCC[C@H]3NS(C)(=O)=O)n2)ccc2c1C1CCC(C2)N1 (stereo partly drawn) [Example 92, N-{(1R,2R)-2-[5-Chloro-2-(3-methoxy-12-aza-tricyclo[7.2.1.0*2,7*]dodeca-2(7),3,5-trien-4-ylamino)-pyrimidin-4-ylamino]-cyclohexyl}-methanesulfonamide]?
Answer: IC50 [1, 5]: > 10 µM; IC50 [2, 6]: 1000 to 10000 nM

Question: For CNS(=O)(=O)c1ccccc1Nc1nc(Nc2ccc3c(c2)C2CCC3CN(C(=O)C(F)(F)F)C2)ncc1Cl (stereo not shown) [Example 284, 2-{5-Chloro-2-[10-(2,2,2-trifluoro-acetyl)-10-aza-tricyclo[6.3.2.0*2,7*]trideca-2,4,6-trien-4-ylamino]-pyrimidin-4-ylamino}-N-methyl-benzenesulfonamide], which IC50 [1, 5] is on record?
Answer: 0.1 to 1 µM

Question: What about the IC50 [2, 6] of the same compound?
Answer: < 100 nM

Question: Which IC50 [1, 5] does the source give for CS(=O)(=O)Nc1ccccc1Nc1nc(Nc2ccc3c(c2)C2CCC3CN(C(=O)C(F)(F)F)C2)ncc1Cl (stereo not shown) [Example 291, N-(2-{5-Chloro-2-[10-(2,2,2-trifluoro-acetyl)-10-aza-tricyclo[6.3.2.0*2,7*]trideca-2,4,6-trien-4-ylamino]-pyrimidin-4-ylamino}-phenyl)-methanesulfonamide] here?
Answer: 1 to 10 µM

Question: What about the IC50 [2, 6] of the same compound?
Answer: < 100 nM

Question: What does the source list for COc1cccc(C(=O)NCC#N)c1Nc1nc(Nc2ccc3c(c2)CCCC(=O)N3C)ncc1Cl [Example 1065, 2-[5-Chloro-2-(1-methyl-2-oxo-2,3,4,5-tetrahydro-1H-benzo[b]azepin-7-ylamino)-pyrimidin-4-ylamino]-N-cyanomethyl-3-methoxy-benzamide]?
Answer: IC50 [1, 9]: 0.1 to 1 µM; IC50 [2, 10]: > 10000 nM

Question: For N#CCNC(=O)c1cccc(F)c1Nc1nc(Nc2ccc3c(c2)CCCC(=O)N3)ncc1Cl [Example 1046, 2-[5-Chloro-2-(2-oxo-2,3,4,5-tetrahydro-1H-benzo[b]azepin-7-ylamino)-pyrimidin-4-ylamino]-N-cyanomethyl-3-fluoro-benzamide], which IC50 [1, 9] is on record?
Answer: < 0.1 µM

Question: And the IC50 [2, 10]?
Answer: < 100 nM

Question: For CC1(C)CCC(=O)Nc2cc(Nc3ncc(Cl)c(N[C@H]4[C@@H](C(N)=O)[C@@H]5C=C[C@H]4C5)n3)ccc21 [Example 1236, (1S,2S,3R,4R)-3-[5-Chloro-2-(5,5-dimethyl-2-oxo-2,3,4,5-tetrahydro-1H-1-benzazepin-8-ylamino)-pyrimidin-4-ylamino]-bicyclo[2.2.1]hept-5-ene-2-carboxylic acid amide], which IC50 [1, 9] is on record?
Answer: < 0.1 µM

Question: What about the IC50 [2, 10] of the same compound?
Answer: < 100 nM

Question: For CCCNC(=O)c1ccccc1Nc1nc(Nc2cc3c(cc2OC)CCN(CCOC)CC3)ncc1Cl [Example 1026, 2-{5-Chloro-2-[8-methoxy-3-(2-methoxy-ethyl)-2,3,4,5-tetrahydro-1H-benzo[d]azepin-7-ylamino]-pyrimidin-4-ylamino}-N-propyl-benzamide], which IC50 [1, 9] is on record?
Answer: > 10 µM

Question: What about the IC50 [2, 10] of the same compound?
Answer: < 100 nM

Question: COCCN1CCc2ccc(Nc3ncc(Cl)c(Nc4c(F)cccc4OC4CCOC4)n3)cc2CC1 (stereo not shown) [Example 1274, 5-Chloro-N(4)-[2-fluoro-6-(tetrahydro-furan-3-yloxy)-phenyl]-N(2)-[3-(2-methoxy-ethyl)-2,3,4,5-tetrahydro-1H-3-benzazepin-7-yl]-pyrimidine-2,4-diamine] was tested. Which IC50 [1, 9] did it give?
Answer: 0.1 to 1 µM

Question: And the IC50 [2, 10]?
Answer: 100 to 1000 nM

Question: CC1(C)CCC(=O)Nc2ccc(Nc3ncc(Cl)c(Nc4ccccc4-c4cnccn4)n3)cc21 [Example 975] was tested. Which IC50 [1, 7] did it give?
Answer: 1 to 10 µM

Question: What about the IC50 [2, 8] of the same compound?
Answer: < 100 nM

Question: How did the IC50 [1, 7] turn out when CCN1C(=O)CCCc2c1ccc(Nc1ncc(Cl)c(N[C@H]3[C@@H](C(=O)NC)[C@@H]4C=C[C@H]3C4)n1)c2OC (relative stereo) [Example 601, (2-exo-3-exo)-3-[5-Chloro-2-(1-ethyl-6-methoxy-2-oxo-2,3,4,5-tetrahydro-1H-benzo[b]azepin-7-ylamino)-pyrimidin-4-ylamino]-bicyclo[2.2.1]hept-5-ene-2-carboxylic acid methylamide] was run?
Answer: > 10 µM

Question: What about the IC50 [2, 8] of the same compound?
Answer: < 100 nM

Question: For “N-((1R,2R)-2-{5-Chloro-2-[7-(2,2,2-trifluoro-ethylamino)-6,7,8,9-tetrahydro-5H-benzocyclohepten-2-ylamino]-pyrimidin-4-ylamino}-cyclohexyl)-methanesulfonamide [Example 687]”, which IC50 [1, 7] is on record?
Answer: > 10 µM

Question: And the IC50 [2, 8]?
Answer: < 100 nM

Question: Which results are given for COc1cc2c(cc1Nc1ncc(Cl)c(N[C@H]3[C@@H](C(N)=O)[C@@H]4C=C[C@H]3C4)n1)CCN(CC(=O)N1CCOCC1)CC2 [Example 1527, (1S,2S,3R,4R)-3-{5-Chloro-2-[8-methoxy-3-(2-morpholin-4-yl-2-oxo-ethyl)-2,3,4,5-tetrahydro-1H-3-benzazepin-7-ylamino]-pyrimidin-4-ylamino}-bicyclo[2.2.1]hept-5-ene-2-carboxylic acid amide]?
Answer: IC50 [1, 3]: > 10 µM; IC50 [2, 4]: < 100 nM

Question: What does the source list for COCC(COC)N1CCc2cc(Nc3ncc(Cl)c(Nc4ccc(Cl)cc4S(=O)(=O)N(C)C)n3)c(OC)cc2CC1 [Example 838, 5-Chloro-2-{5-chloro-2-[8-methoxy-3-(2-methoxy-1-methoxymethyl-ethyl)-2,3,4,5-tetrahydro-1H-benzo[d]azepin-7-ylamino]-pyrimidin-4-ylamino}-N,N-dimethyl-benzenesulfonamide]?
Answer: IC50 [1, 7]: > 10 µM; IC50 [2, 8]: < 100 nM

Question: What does the source list for COc1c(Nc2ncc(Cl)c(N[C@@H]3CCCC[C@H]3NS(C)(=O)=O)n2)ccc2c1CCC(NCCO)CC2 (single isomer, unassigned) [Example 698]?
Answer: IC50 [1, 7]: > 10 µM; IC50 [2, 8]: < 100 nM
